Source: patent publication US8859559B2, “Substituted pyrazines and their use in the treatment of disease” (Boehringer Ingelheim International GmbH, priority 2011, dated 2014)

target: T1, ENaC (Epithelial Sodium Channel) (Mus musculus, UniProt Q61180+Q9WU38+Q9WU39); experiment: Ussing chamber: inhibition of amiloride sensitive short circuit current (I_sc) in M-1 cells; format: cell-based; details: mouse kidney M-1 cells
T1 construct: Mouse kidney M-1 cells were cultivated in DMEM; endogenous in cells; host or cells: Mouse kidney M-1 cells (dexamethasone-treated, on transwell filters)
T1 sequence (Q61180 1-699): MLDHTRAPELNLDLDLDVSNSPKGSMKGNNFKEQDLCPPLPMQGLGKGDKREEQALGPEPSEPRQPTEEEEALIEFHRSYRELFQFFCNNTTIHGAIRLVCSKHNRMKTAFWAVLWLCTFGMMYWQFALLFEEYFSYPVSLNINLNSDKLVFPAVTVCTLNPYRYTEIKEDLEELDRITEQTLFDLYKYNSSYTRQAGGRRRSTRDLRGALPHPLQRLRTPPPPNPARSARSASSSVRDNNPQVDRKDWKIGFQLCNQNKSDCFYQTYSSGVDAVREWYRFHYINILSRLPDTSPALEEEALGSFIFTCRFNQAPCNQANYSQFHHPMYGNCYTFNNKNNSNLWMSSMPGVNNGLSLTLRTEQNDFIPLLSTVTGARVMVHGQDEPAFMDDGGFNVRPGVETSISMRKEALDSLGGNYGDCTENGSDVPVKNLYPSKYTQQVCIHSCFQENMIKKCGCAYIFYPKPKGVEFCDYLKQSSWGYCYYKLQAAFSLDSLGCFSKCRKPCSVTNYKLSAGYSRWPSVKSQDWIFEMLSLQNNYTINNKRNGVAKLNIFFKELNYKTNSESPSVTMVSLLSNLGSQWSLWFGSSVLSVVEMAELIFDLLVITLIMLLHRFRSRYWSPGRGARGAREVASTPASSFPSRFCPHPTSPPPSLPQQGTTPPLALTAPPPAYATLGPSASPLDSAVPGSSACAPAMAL
T1 sequence (Q9WU38 1-638): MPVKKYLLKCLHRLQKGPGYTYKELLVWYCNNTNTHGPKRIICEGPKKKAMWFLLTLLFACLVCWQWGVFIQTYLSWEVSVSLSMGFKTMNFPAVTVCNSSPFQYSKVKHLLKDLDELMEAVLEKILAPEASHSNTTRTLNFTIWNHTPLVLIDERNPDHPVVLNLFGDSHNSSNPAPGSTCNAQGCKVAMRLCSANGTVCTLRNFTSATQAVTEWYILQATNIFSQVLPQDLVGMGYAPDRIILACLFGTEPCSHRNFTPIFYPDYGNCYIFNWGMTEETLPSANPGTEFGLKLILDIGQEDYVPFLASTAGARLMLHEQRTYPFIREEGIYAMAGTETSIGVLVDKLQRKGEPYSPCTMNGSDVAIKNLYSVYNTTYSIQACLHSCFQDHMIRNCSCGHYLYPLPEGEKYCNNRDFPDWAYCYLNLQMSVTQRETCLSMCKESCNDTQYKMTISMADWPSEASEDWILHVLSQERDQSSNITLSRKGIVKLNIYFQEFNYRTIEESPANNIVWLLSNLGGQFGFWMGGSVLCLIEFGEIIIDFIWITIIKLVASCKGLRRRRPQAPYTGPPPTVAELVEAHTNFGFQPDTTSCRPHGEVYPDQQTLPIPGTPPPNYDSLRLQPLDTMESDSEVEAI
T1 sequence (Q9WU39 1-655): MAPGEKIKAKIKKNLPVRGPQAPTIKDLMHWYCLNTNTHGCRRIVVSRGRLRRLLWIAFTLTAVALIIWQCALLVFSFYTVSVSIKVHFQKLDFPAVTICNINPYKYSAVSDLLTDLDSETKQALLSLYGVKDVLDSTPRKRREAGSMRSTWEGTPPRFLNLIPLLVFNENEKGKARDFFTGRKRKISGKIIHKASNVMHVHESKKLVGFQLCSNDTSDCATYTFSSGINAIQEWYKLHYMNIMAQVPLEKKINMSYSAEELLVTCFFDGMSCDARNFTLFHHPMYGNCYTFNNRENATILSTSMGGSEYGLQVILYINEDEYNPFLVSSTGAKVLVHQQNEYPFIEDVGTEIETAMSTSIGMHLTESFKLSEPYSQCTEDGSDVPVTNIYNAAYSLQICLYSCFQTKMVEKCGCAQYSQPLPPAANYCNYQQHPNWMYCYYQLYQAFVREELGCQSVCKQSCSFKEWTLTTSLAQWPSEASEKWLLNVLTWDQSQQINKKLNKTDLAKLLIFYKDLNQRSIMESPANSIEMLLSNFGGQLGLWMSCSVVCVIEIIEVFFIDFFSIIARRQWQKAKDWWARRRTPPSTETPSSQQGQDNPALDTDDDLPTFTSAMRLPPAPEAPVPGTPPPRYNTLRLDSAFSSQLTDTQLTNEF
Procedure: Mouse kidney M-1 cells were cultivated in DMEM containing 5% FCS and 5 μM dexamethasone for 10 to 12 days on polyester transwell filters. Filters were inserted into a teflon-coated well-plate which fit into the in-house ussing chamber system. Prior to measurement the medium of M-1 cells was replaced with Caco-2 transport buffer (Invitrogen, Germany). During measurements, the Ussing chamber temperature was kept at 37° C. Short circuit currents (I_sc) were measured in the voltage-clamp mode using an in-house built amplifier (Boehringer Ingelheim, Biberach) with the software package Lab View for data acquisition and analysis. The transepithelial electrical resistance (TEER) was determined by the application of voltage steps of ±5 mV every 5 sec. Compounds were administered at a final concentration of 3 μM or at increasing concentrations (1-3-10 μM) to the apical solution. At the end of each experiment the amiloride sensitive I_SC was measured by adding 3 μM amiloride to the apical compartment. Results are expressed as inhibition in percent of the amiloride effect or as IC50. With the example compounds given above, the following IC50 values were determined in the Ussing Chamber assay: […]

SMILES	IC50
C#Cc1cccc(CN2CCC(NC(N)=NC(=O)c3nc(Cl)c(N)nc3N)CC2)c1 [Example 1.32]	7 nM
C[N+](C)(C)CCNC(=O)c1cccc(CN2CCC(NC(N)=NC(=O)c3nc(Cl)c(N)nc3N)CC2)c1 [Example 2.3]	3 nM
COC(=O)COc1ccc(CN2CCC(N/C(N)=N/C(=O)c3nc(Br)c(N)nc3N)CC2)cc1 [Example 1.68]	11 nM
N#Cc1ccc(CN2CCC(N/C(N)=N/C(=O)c3nc(Cl)c(N)nc3N)CC2)cc1 [Example 1.40]	2 nM
NC(=NC(=O)c1nc(Cl)c(N)nc1N)NC1CCN(Cc2ccc(C(=O)NCCOCCOCCOCCn3cc(COCCO)nn3)cc2)CC1 [Example 3.8]	19 nM
NC(=NC(=O)c1nc(Cl)c(N)nc1N)NC1CCN(Cc2ccc(CCc3cccnc3)cc2)CC1 [Example 1.57]	5 nM
NC(=NC(=O)c1nc(Cl)c(N)nc1N)NC1CCN(Cc2ccc(C(=O)NCCOCCOCCO)cc2)CC1 [Example 1.39]	6 nM
[N-]=[N+]=NCCOCCOCCOCCNC(=O)c1ccc(CN2CCC(NC(N)=NC(=O)c3nc(Cl)c(N)nc3N)CC2)cc1 [Example 1.7]	4 nM
CN(Cc1cn(CCc2ccc(CN3CCC(NC(N)=NC(=O)c4nc(Cl)c(N)nc4N)CC3)cc2)nn1)C(=O)CCNC(=O)OC(C)(C)C [Example 3.5]	7 nM
N/C(=N\C(=O)c1nc(Cl)c(N)nc1N)NC1CCN(Cc2ccc(CCn3cc(CCC(=O)N(CCO)CCO)nn3)cc2)CC1 [Example 3.1]	29 nM
NC(=NC(=O)c1nc(Cl)c(N)nc1N)NC1CCN(Cc2cccc(-c3cn(CCOCCOCCOCCOCCOCCOC(c4ccccc4)(c4ccccc4)c4ccccc4)nn3)c2)CC1 [Example 3.37]	9 nM
COC(=O)Cc1ccc(CN2CCC(NC(N)=NC(=O)c3nc(Cl)c(N)nc3N)CC2)cc1 [Example 1.38]	8 nM
NC(=NC(=O)c1nc(Cl)c(N)nc1N)NC1CCN(Cc2ccc(C(=O)NCCc3cccnc3)cc2)CC1 [Example 1.24]	3 nM
NC(=NC(=O)c1nc(Cl)c(N)nc1N)NC1CCN(Cc2ccc(S(=O)(=O)NCCO)cc2)CC1 [Example 1.63]	6 nM
NC(=NC(=O)c1nc(Cl)c(N)nc1N)NC1CCN(Cc2ccc(-n3cc(CCC(=O)N(CCO)CCO)nn3)cc2)CC1 [Example 3.12]	5 nM
C#CCCCCOC(=O)c1ccc(CN2CCC(NC(N)=NC(=O)c3nc(Cl)c(N)nc3N)CC2)cc1 [Example 1.9]	8 nM

SMILES	IC50
NC(=NC(=O)c1nc(Cl)c(N)nc1N)NC1CCN(Cc2ccc(C(=O)NCCS(=O)(=O)O)cc2)CC1 [Example 2.4]	35 nM
CC[N+](CC)(CC)Cc1ccc(CCn2cc(-c3cccc(CN4CCC(NC(N)=NC(=O)c5nc(Cl)c(N)nc5N)CC4)c3)nn2)cc1 [Example 3.38]	1 nM
CN(C)Cc1cn(-c2ccc(CN3CCC(NC(N)=NC(=O)c4nc(Cl)c(N)nc4N)CC3)cc2)nn1 [Example 3.15]	2 nM
NC(=NC(=O)c1nc(Cl)c(N)nc1N)NC1CCN(Cc2ccc(-n3cc(CCC(=O)O)nn3)cc2)CC1 [Example 3.13]	57 nM
[N-]=[N+]=Nc1ccc(CN2CCC(N/C(N)=N/C(=O)c3nc(Cl)c(N)nc3N)CC2)cc1 [Example 1.10]	6 nM
COc1ccc(CCN2CCC(NC(N)=NC(=O)c3nc(Cl)c(N)nc3N)CC2)cc1 [Example 1.19]	12 nM
NC(=NC(=O)c1nc(Cl)c(N)nc1N)NC1CCN(Cc2ccc(-c3cn(CCOCCOCCOCCOCCOCCO)nn3)cc2)CC1 [Example 3.27]	1 nM
COC(=O)c1ccc(=O)n(Cc2ccc(CN3CCC(NC(N)=NC(=O)c4nc(Cl)c(N)nc4N)CC3)cc2)c1 [Example 1.5]	7 nM
NC(=NC(=O)c1nc(Cl)c(N)nc1N)NC1CCN(Cc2ccc(C(=O)NCCOCCOCCOCCn3cc(COC[B-](F)(F)F)nn3)cc2)CC1 [Example 3.9]	20 nM
COC(=O)COc1cccc(CN2CCC(NC(N)=NC(=O)c3nc(Cl)c(N)nc3N)CC2)c1 [Example 1.44]	20 nM
NCCOCCOCCNC(=O)c1ccc(CN2CCC(NC(N)=NC(=O)c3nc(Cl)c(N)nc3N)CC2)cc1 [Example 1.47]	3 nM
CN(C)CCCOc1ccc(CN2CCC(NC(N)=NC(=O)c3nc(Cl)c(N)nc3N)CC2)cc1 [Example 1.34]	5 nM
NC(=NC(=O)c1nc(Cl)c(N)nc1N)NC1CCN(Cc2ccc(-c3cn(CCOCCOC(c4ccccc4)(c4ccccc4)c4ccccc4)nn3)cc2)CC1 [Example 3.30]	1 nM
CN(C)CCNC(=O)c1ccc(CN2CCC(NC(N)=NC(=O)c3nc(Cl)c(N)nc3N)CC2)cc1 [Example 1.14]	1 nM
NC(=NC(=O)c1nc(Cl)c(N)nc1N)NC1CCCN(Cc2ccccc2)CC1 (stereo not shown) [Example 1.22]	14 nM
CN(C)CCN(CCN(C)C)C(=O)c1ccc(CN2CCC(NC(N)=NC(=O)c3nc(Cl)c(N)nc3N)CC2)cc1 [Example 2.2]	6 nM

Results, then the molecule that gave them:

IC50	SMILES
14 nM	CN(Cc1cn(CCc2ccc(CN3CCC(NC(N)=NC(=O)c4nc(Cl)c(N)nc4N)CC3)cc2)nn1)C(=O)CCNCCOCCOCCOCCO [Example 5.2]
31 nM	NC(=NC(=O)c1nc(Cl)c(N)nc1N)NC1CCN(Cc2cccc(-c3cn(CCOCCOCCOCCNC(=O)c4cc(OCCOCCOCCO)cc(OCCOCCOCCO)c4)nn3)c2)CC1 [Example 5.10]
3 nM	N/C(=N\C(=O)c1nc(Cl)c(N)nc1N)NC1CCN(Cc2ccc(-c3cn(CCOCCOCCO)nn3)cc2)CC1 [Example 5.4]
50 nM	NC(=NC(=O)c1nc(Cl)c(N)nc1N)NC1CCN(Cc2ccc(C(=O)O)cc2Cl)CC1 [Example 8.11]
7 nM	NC(=NC(=O)c1nc(Cl)c(N)nc1N)NC1CCN(Cc2cccc(-c3cn(CCOCCOCCOCCNCCOCCOCCO)nn3)c2)CC1 [Example 5.11]
31 nM	NC(=NC(=O)c1nc(Cl)c(N)nc1N)N[C@H]1CCN(Cc2ccc(OCC(=O)O)cc2)C1 [Example 8.16]
30 nM	NC(=NC(=O)c1nc(Cl)c(N)nc1N)NC1CCN(Cc2ccc(CCC(=O)O)cc2)CC1 [Example 8.14]
477 nM	N/C(=N\C(=O)c1nc(Cl)c(N)nc1N)NC1CCN(Cc2ccc(CP(=O)(O)O)cc2)CC1 [Example 7.1]
74 nM	COc1cc(C(=O)O)ccc1CN1CCC(NC(N)=NC(=O)c2nc(Cl)c(N)nc2N)CC1 [Example 8.9]
243 nM	NC(=NC(=O)c1nc(Cl)c(N)nc1N)NC1CCN(Cc2ccccc2C(=O)O)CC1 [Example 8.7]
210 nM	NC(=NC(=O)c1nc(Cl)c(N)nc1N)NC1CCN(Cc2ccc(-n3cc(C(=O)O)ccc3=O)cc2)CC1 [Example 8.4]
